Assay results taken from US9586931B2 (Merck Sharp & Dohme Corp., priority 2012, dated 2017).

What follows are compounds tested against T1, recombinant human GST-Syk (Homo sapiens, UniProt P43405) (assay: Homogeneous Time-Resolved Fluorescence (HTRF) assay for the recombinant human Syk enzyme). Details: recombinant human GST-Syk 5 pM, ATP 25 μM, 10-dose titration 10 μM to 0.508 nM; read-out: rhSYK Activity IC50.
T1 construct: purchased Carna Biosciences 08-176
Format: biochemical
Description: Syk inhibition may be determined using the following assay protocol:
Homogeneous Time-Resolved Fluorescence (HTRF) assay for the recombinant human Syk enzyme: A recombinant GST-hSyk fusion protein was used to measure potency of compounds to inhibit human Syk activity. […] Final volume of the reaction was 10 μL. Phosphorylation of the peptide was allowed to proceed for 45 minutes at room temperature. To quench the reaction and detect the phosphorylated product, 2 nM of a Europium-anti-phosphotyrosine antibody (Perkin Elmer #AD0161) and 70 nM SA-APC (Perkin-Elmer #CR130-100) were added together in 15 mM Tris pH 7.5, 40 mM EDTA, 0.01% tween 20. Final volume of the quenching solution was 10 μL. The resulting HTRF signal was measured after 30 minutes on an EnVision (Perkin-Elmer) reader using a time-resolved fluorescence protocol.

Structure (SMILES)	IC50 [nM]
Cc1cc(Nc2cc(C(F)(F)F)ccn2)nc(-c2cn(C(CO)c3ccc(C(=O)O)cc3)nn2)c1 (centres unmarked) [Example 3.17, 4-{2-hydroxy-1-[4-(4-methyl-6-{[4-(trifluoromethyl)pyridin-2-yl]amino}pyridin-2-yl)-1H-1,2,3-triazol-1-yl]ethyl}benzoic acid]	0.1
Cc1cc(Nc2cc(C(F)(F)F)ccn2)nc(-c2cn(C3CN(C(=O)C(C)O)CC3O)nn2)c1 (single isomer, unassigned) [Example 13.4, 1-[2-hydroxypropanoyl]-4-[4-(4-methyl-6-{[4-(trifluoromethyl)pyridin-2-yl]amino}pyridin-2-yl)-1H-1,2,3-triazol-1-yl]pyrrolidin-3-ol]	15
Cc1cc(Nc2cc(C(F)F)ccn2)nc(-c2cn(CC3CNC(=O)O3)nn2)c1 (single isomer, unassigned) [Example 7.12, 5-((4-(6-((4-(difluoromethyl)pyridin-2-yl)amino)-4-methylpyridin-2-yl)-1H-1,2,3-triazol-1-yl)methyl)oxazolidin-2-one]	2
Cc1cc(Nc2cc(C(F)(F)F)ccn2)nc(-c2cn(C(C)C(=O)NCc3c(-c4ccccc4)noc3C)nn2)c1 (centres unmarked) [Example 1.47, N-[(5-methyl-3-phenylisoxazol-4-yl)methyl]-2-[4-(4-methyl-6-{[4-(trifluoromethyl)pyridin-2-yl]amino}pyridin-2-yl)-1H-1,2,3-triazol-1-yl]propanamide]	345
COCc1cc(Nc2nccc(C(F)(F)F)n2)cc(-c2cn(C[C@H](O)CO)nn2)c1 [Example 5.23, (2S)-3-{4-[3-(methoxymethyl)-5-{[4-(trifluoromethyl)pyrimidin-2-yl]amino}phenyl]-1H-1,2,3-triazol-1-yl}propane-1,2-diol]	64.7
Cc1cc(Nc2cc(C(F)(F)F)ccn2)nc(-c2cn(C3CNCC3O)nn2)c1 (centres unmarked) [Example 4.15, 4-[4-(4-methyl-6-{[4-(trifluoromethyl)pyridin-2-yl]amino}pyridin-2-yl)-1H-1,2,3-triazol-1-yl]pyrrolidin-3-ol]	32.9
Cc1cc(Nc2nccc(C(F)(F)F)n2)cc(-n2cc([C@]3(O)CC[C@@H](C(=O)O)CC3)nn2)c1 [Example 15.4, cis-4-hydroxy-4-[1-(3-methyl-5-{[4-(trifluoromethyl)pyrimidin-2-yl]amino}phenyl)-1H-1,2,3-triazol-4-yl]cyclohexanecarboxylic acid]	12.5
Cc1cc(Nc2cc(C(F)(F)F)ccn2)nc(-c2cn([C@H](C)C(=O)N3CCC[C@H]3C(N)=O)nn2)c1 [Example 1.19, 1-{(2R)-2-[4-(4-methyl-6-{[4-(trifluoromethyl)pyridin-2-yl]amino}pyridin-2-yl)-1H-1,2,3-triazol-1-yl]propanoyl}prolinamide]	123
Cc1cc(Nc2cc(C(F)(F)F)ccn2)nc(-c2cn(C3CCC(C(N)=O)C(C)(C)C3)nn2)c1 (single isomer, unassigned) [Example 1.5, 2,2-dimethyl-4-[4-(4-methyl-6-{[4-(trifluoromethyl)pyridin-2-yl]amino}pyridin-2-yl)-1H-1,2,3-triazol-1-yl]cyclohexanecarboxamide]	8
Cc1cc(Nc2nccc(C(F)(F)F)n2)cc(-c2cn(CC(=O)NC(C)(C)C)nn2)c1 [Example 5.70, N-tert-butyl-2-[4-(3-methyl-5-{[4-(trifluoromethyl)pyrimidin-2-yl]amino}phenyl)-1H-1,2,3-triazol-1-yl]acetamide]	183
Cc1cc(Nc2cc(C(F)(F)F)ccn2)nc(-c2c[nH]nn2)c1 [Example 5.101, 4-methyl-6-(1H-1,2,3-triazol-4-yl)-N-[4-(trifluoromethyl)pyridin-2-yl]pyridin-2-amine]	25.2
Cc1cc(Nc2nccc(C(F)(F)F)n2)cc(-c2cn(C3COCC3O)nn2)c1 (single isomer, unassigned) [Example 4.4, 4-[4-(3-methyl-5-{[4-(trifluoromethyl)pyrimidin-2-yl]amino}phenyl)-1H-1,2,3-triazol-1-yl]tetrahydrofuran-3-ol]	26.1
Cc1cc(Nc2nccc(C(F)(F)F)n2)cc(-c2cn(CCCN3CCNC3=O)nn2)c1 [Example 5.71, 1-{3-[4-(3-methyl-5-{[4-(trifluoromethyl)pyrimidin-2-yl]amino}phenyl)-1H-1,2,3-triazol-1-yl]propyl}imidazolidin-2-one]	152
Cc1cc(Nc2cc(C(F)(F)F)ccn2)nc(-c2cn(Cc3cc[nH]n3)nn2)c1 [Example 5.111, 4-methyl-6-[1-(1H-pyrazol-3-ylmethyl)-1H-1,2,3-triazol-4-yl]-N-[4-(trifluoromethyl)pyridin-2-yl]pyridin-2-amine]	2.2
Cc1cc(Nc2nccc(C(F)(F)F)n2)cc(-c2cn(C[C@H](O)CC#N)nn2)c1 [Example 5.98, (3R)-3-hydroxy-4-[4-(3-methyl-5-{[4-(trifluoromethyl)pyrimidin-2-yl]amino}phenyl)-1H-1,2,3-triazol-1-yl]butanenitrile]	20
Cc1cc(Nc2nccc(C(F)(F)F)n2)cc(-c2cn(CCOCCO)nn2)c1 [Example 5.49, 2-{2-[4-(3-methyl-5-{[4-(trifluoromethyl)pyrimidin-2-yl]amino}phenyl)-1H-1,2,3-triazol-1-yl]ethoxy}ethanol]	78.8
Cc1cc(Nc2cc(C(F)(F)F)ccn2)nc(-c2cn(C[C@@H](O)CO)nn2)c1 [Example 5.19, (2R)-3-[4-(4-methyl-6-{[4-(trifluoromethyl)pyridin-2-yl]amino}pyridin-2-yl)-1H-1,2,3-triazol-1-yl]propane-1,2-diol]	4
Cc1cc(Nc2ncc(F)c(C(F)F)n2)cc(-c2cn(CC3CNC(=O)O3)nn2)c1 (single isomer, unassigned) [Example 7.35, 5-{[4-(3-{[4-(difluoromethyl)-5-fluoropyrimidin-2-yl]amino}-5-methylphenyl)-1H-1,2,3-triazol-1-yl]methyl}-1,3-oxazolidin-2-one]	7.6
Cc1cc(Nc2cc(C(F)(F)F)ccn2)nc(-c2cn(C(C)C(=O)NC(C)c3cnn(-c4ccccc4F)c3)nn2)c1 (centres unmarked) [Example 1.35, N-{1-[1-(2-fluorophenyl)-1H-pyrazol-4-yl]ethyl}-2-[4-(4-methyl-6-{[4-(trifluoromethyl)pyridin-2-yl]amino}pyridin-2-yl)-1H-1,2,3-triazol-1-yl]propanamide]	171
Cc1cc(Nc2cc(C(F)(F)F)ccn2)nc(-c2cn(C3CCC(C(=O)O)C(C)(C)C3)nn2)c1 (single isomer, unassigned) [Example 3.7, (R or S) 2,2-dimethyl-4-[4-(4-methyl-6-{[4-(trifluoromethyl)pyridin-2-yl]amino}pyridin-2-yl)-1H-1,2,3-triazol-1-yl]cyclohexanecarboxylic acid]	3.7
Cc1cc(Nc2cc(C(F)(F)F)ccn2)nc(-c2cn(C(C)C(O)CC#N)nn2)c1 (centres unmarked) [Example 4.2, 3-hydroxy-4-[4-(4-methyl-6-{[4-(trifluoromethyl)pyridin-2-yl]amino}pyridin-2-yl)-1H-1,2,3-triazol-1-yl]pentanenitrile]	12.8
Cc1cc(Nc2nccc(C(F)F)n2)cc(-c2cn(CC3OC(=O)NC3C)nn2)c1 (single isomer, unassigned) [Example 7.42, 5-{[4-(3-{[4-(difluoromethyl)pyrimidin-2-yl]amino}-5-methylphenyl)-1H-1,2,3-triazol-1-yl]methyl}-4-methyl-1,3-oxazolidin-2-one]	10.7
Cc1cc(Nc2cc(C(F)(F)F)ccn2)nc(-c2cn(-c3ncccc3Cl)nn2)c1 [Example 6.1, 6-(1-(3-Chloropyridin-2-yl)-1H-1,2,3-triazol-4-yl)-4-methyl-N-(4-(trifluoromethyl)pyridin-2-yl)pyridin-2-amine]	41
Cc1cc(Nc2cc(C(F)F)ccn2)nc(-c2cn(C3CCCCC3O)nn2)c1 (single isomer, unassigned) [Example 7.24, 2-[4-(6-{[4-(difluoromethyl)pyridin-2-yl]amino}-4-methylpyridin-2-yl)-1H-1,2,3-triazol-1-yl]cyclohexanol]	1.2
Cc1cc(Nc2cc(C)c(F)cn2)nc(-c2cn(CC(C)(O)C(C)(C)O)nn2)c1 (centres unmarked) [Example 21.22, 1-(4-{6-[(5-fluoro-4-methylpyridin-2-yl)amino]-4-methylpyridin-2-yl}-1H-1,2,3-triazol-1-yl)-2,3-dimethylbutane-2,3-diol]	85.8
Cc1cc(Nc2nccc(C(F)F)n2)cc(-c2cn(CC3OC(=O)NC3C)nn2)c1 (single isomer, unassigned) [Example 7.7, 5-((4-(3-((4-(difluoromethyl)pyrimidin-2-yl)amino)-5-methylphenyl)-1H-1,2,3-triazol-1-yl)methyl)-4-methyloxazolidin-2-one]	9.9
Cc1cc(Nc2cc(C(F)(F)F)ccn2)nc(-c2cn(C(C(N)=O)c3ccc(F)cc3)nn2)c1 (centres unmarked) [Example 1.17, 2-(4-fluorophenyl)-2-[4-(4-methyl-6-{[4-(trifluoromethyl)pyridin-2-yl]amino}pyridin-2-yl)-1H-1,2,3-triazol-1-yl]acetamide]	4.4
Cc1cc(Nc2cc(C(F)F)ccn2)nc(-c2cn(C(C)C3CNC(=O)O3)nn2)c1 (single isomer, unassigned) [Example 7.11, 5-(1-(4-(6-((4-(difluoromethyl)pyridin-2-yl)amino)-4-methylpyridin-2-yl)-1H-1,2,3-triazol-1-yl)ethyl)oxazolidin-2-one]	1.4
CCC(O)(CC)Cn1cc(-c2cc(C)cc(Nc3cc(C(F)(F)F)ccn3)n2)nn1 [Example 4.31, 3-{[4-(4-methyl-6-{[4-(trifluoromethyl)pyridin-2-yl]amino}pyridin-2-yl)-1H-1,2,3-triazol-1-yl]methyl}pentan-3-ol]	8.1
